Literature values, collected in patent US11291812B2, “Sinus delivery of sustained release therapeutics” (Intersect ENT, Inc., priority 2003, dated 2022).

System: sinusitis
Conditions: ampicillin delivered from a poly(lactic-co-glycolic)acid (PLGA) film placed in rabbit maxillary sinus

## CC1(C)S[C@@H]2[C@H](NC(=O)[C@H](N)c3ccccc3)C(=O)N2[C@H]1C(=O)O [ampicillin]
  clinical signs of sinusitis: improved
